According to article PMC9520948, “Moonlighting glyceraldehyde-3-phosphate dehydrogenase (GAPDH) protein of Lactobacillus gasseri attenuates allergic asthma via immunometabolic change in macrophages” (Journal of Biomedical Science, 2022):

Assays:
[1] = molecular target: T1, human plasminogen (Homo sapiens, UniProt P00747); test: competitive solid-phase binding assay (ELISA), displacement of GAPDH; details: competition with 125 ng His-tagged bacterial GAPDH; EACA 1.25 to 10 mM; lysine analog
T1 construct: gene PLG; commercial (BioVision), 1 microgram coated on polystyrene plate
T1 sequence (P00747 20-810): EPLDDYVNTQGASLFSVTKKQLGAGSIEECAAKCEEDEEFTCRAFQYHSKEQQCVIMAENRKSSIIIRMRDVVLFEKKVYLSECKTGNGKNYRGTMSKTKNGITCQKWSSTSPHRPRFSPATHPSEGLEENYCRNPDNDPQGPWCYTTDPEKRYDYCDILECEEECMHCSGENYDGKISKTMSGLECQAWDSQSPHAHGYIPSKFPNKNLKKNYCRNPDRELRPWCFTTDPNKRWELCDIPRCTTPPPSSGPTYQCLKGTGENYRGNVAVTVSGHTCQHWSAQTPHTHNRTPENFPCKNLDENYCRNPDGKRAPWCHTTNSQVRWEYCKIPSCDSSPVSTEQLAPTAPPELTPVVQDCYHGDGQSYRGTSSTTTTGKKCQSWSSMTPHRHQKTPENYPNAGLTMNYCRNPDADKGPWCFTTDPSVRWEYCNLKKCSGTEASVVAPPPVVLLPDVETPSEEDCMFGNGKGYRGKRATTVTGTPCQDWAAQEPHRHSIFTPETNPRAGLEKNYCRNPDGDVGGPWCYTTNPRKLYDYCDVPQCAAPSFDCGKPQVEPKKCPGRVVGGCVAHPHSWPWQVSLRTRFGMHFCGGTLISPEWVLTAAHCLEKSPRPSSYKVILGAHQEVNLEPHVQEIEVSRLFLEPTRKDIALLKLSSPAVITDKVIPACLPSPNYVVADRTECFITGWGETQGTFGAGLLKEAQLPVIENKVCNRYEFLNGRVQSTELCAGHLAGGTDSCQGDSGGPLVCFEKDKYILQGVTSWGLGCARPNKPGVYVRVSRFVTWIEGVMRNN

[2] = molecular target: LGp40, His-tagged recombinant glyceraldehyde-3-phosphate dehydrogenase (GAPDH) of Lactobacillus gasseri (Lactobacillus gasseri (BCRC14619)); test: crystal structure; X-ray, 1.88 A, space group I4(1)22; one LGp40 copy in the asymmetric unit, tetramer through crystal symmetry; crystals from 0.1 M sodium cacodylate pH 6.5, 16% w/v PEG 4000, 25 C
[3] = molecular target: T2, LGp40 (GAPDH of L. gasseri) (Lactobacillus gasseri, UniProt A0A1V3Y2M1); test: X-ray crystallography, […] A; details: NAD-binding site, Asp38 hydrogen bonds; crystals at pH 6.5
T2 construct: gene gap; His6-tagged, pET21b, E. coli BL21(DE3), Ni-NTA then Q column; 37 kDa; tetramer through crystal symmetry

NCCCCCC(=O)O [EACA]
competitive solid-phase binding assay (ELISA), displacement of GAPDH [1]: a competitive binding assay using EACA, a lysine analog

LGp40, His-tagged recombinant glyceraldehyde-3-phosphate dehydrogenase (GAPDH) of Lactobacillus gasseri (enzyme)
stoichiometry N [2]: 4

NC(=O)c1ccc[n+]([C@@H]2O[C@H](COP(=O)(O)OP(=O)(O)OC[C@H]3O[C@@H](n4cnc5c(N)ncnc54)[C@H](O)[C@@H]3O)[C@@H](O)[C@H]2O)c1 [NAD^+]
X-ray crystallography, 1.88 A [3]: contributes two hydrogen-bond interactions with NAD^+ to provide stronger binding forces
